Assay results reported in ChEMBL document CHEMBL1201861, “Genomics of Drug Sensitity in Cancer screening data, Wellcome Trust Sanger Institute”.
pIC50: −log10 of the molar value.

Tests used:
Assay in all cases: cells
KNS-42 = assay type: functional, cell-based; details: Homo sapiens;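 note: growth inhibition of KNS-42 cells, read out with a cell viability assay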
Description: SANGER: Inhibition of human KNS-42 cell growth in a cell viability assay.

LS-411N = assay type: functional, cell-based, Homo sapiens; details: Homo sapiens, LS-411N
ONS-76 = assay type: functional, cell-based, Homo sapiens; details: Homo sapiens, ONS-76;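 note: growth inhibition of human ONS-76 cells, read out with a cell viability assay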
Description: SANGER: Inhibition of human ONS-76 cell growth in a cell viability assay.

COLO-668 = assay type: functional, cell-based, Homo sapiens; details: Homo sapiens, COLO-668
Description: SANGER: Inhibition of human COLO-668 cell growth in a cell viability assay.

LS-1034 = assay type: functional, cell-based, Homo sapiens; details: Homo sapiens, LS-1034
Description: SANGER: Inhibition of human LS-1034 cell growth in a cell viability assay.

NCI-H1770 = assay type: functional, cell-based, Homo sapiens; details: Homo sapiens, NCI-H1770;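 note: growth inhibition of NCI-H1770 cells determined with a viability readout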
Description: SANGER: Inhibition of human NCI-H1770 cell growth in a cell viability assay.

JVM-2 = assay type: functional, cell-based, Homo sapiens; details: Homo sapiens, JVM-2;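 note: growth inhibition of JVM-2 cells determined by a cell viability assay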
Description: SANGER: Inhibition of human JVM-2 cell growth in a cell viability assay.

MS-1 = assay type: functional, cell-based, Homo sapiens; details: Homo sapiens, MS-1;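 note: growth inhibition of MS-1 cells, read out by cell viability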
Description: SANGER: Inhibition of human MS-1 cell growth in a cell viability assay.

SK-N-DZ = assay type: functional, cell-based, Homo sapiens; details: Homo sapiens, SK-N-DZ; read-out: IC50;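 note: growth inhibition of the cancer cell line, read out through a viability assay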
Description: SANGER: Inhibition of human SK-N-DZ cell growth in a cell viability assay.

CTB-1 = assay type: functional, cell-based, Homo sapiens; details: Homo sapiens, CTB-1
Description: SANGER: Inhibition of human CTB-1 cell growth in a cell viability assay.

IST-SL1 = assay type: functional, cell-based, Homo sapiens; details: Homo sapiens, IST-SL1;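 note: growth inhibition of human IST-SL1 cells, read out with a cell viability assay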
Description: SANGER: Inhibition of human IST-SL1 cell growth in a cell viability assay.

EM-2 = assay type: functional, cell-based, Homo sapiens; details: Homo sapiens, EM-2;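 note: growth inhibition of EM-2 cells, read out with a cell viability assay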
Description: SANGER: Inhibition of human EM-2 cell growth in a cell viability assay.

MZ7-mel = assay type: functional, cell-based, Homo sapiens; details: Homo sapiens, MZ7-mel;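 note: growth inhibition of human MZ7-mel cells, measured by a cell viability assay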
Description: SANGER: Inhibition of human MZ7-mel cell growth in a cell viability assay.

NB10 = assay type: functional, cell-based, Homo sapiens; details: Homo sapiens, NB10;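 note: growth inhibition of NB10 cells, read out by a cell viability assay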
Description: SANGER: Inhibition of human NB10 cell growth in a cell viability assay.

COLO-800 = assay type: functional, cell-based, Homo sapiens; details: Homo sapiens, COLO-800;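 note: growth inhibition of COLO-800 cells, read out with a cell viability assay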
Description: SANGER: Inhibition of human COLO-800 cell growth in a cell viability assay.

DJM-1 = assay type: functional, cell-based, Homo sapiens; details: Homo sapiens, DJM-1;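 note: growth inhibition of human DJM-1 cells, read out by a cell viability assay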
Description: SANGER: Inhibition of human DJM-1 cell growth in a cell viability assay.

MPP-89 = assay type: functional, cell-based, Homo sapiens; details: Homo sapiens, MPP-89;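 note: growth inhibition of human MPP-89 cells, read out with a cell viability assay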
Description: SANGER: Inhibition of human MPP-89 cell growth in a cell viability assay.

COR-L88 = assay type: functional, cell-based, Homo sapiens; details: Homo sapiens, COR-L88;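 note: growth inhibition of COR-L88 cells, read out with a cell viability assay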
Description: SANGER: Inhibition of human COR-L88 cell growth in a cell viability assay.

D-263MG = assay type: functional, cell-based, Homo sapiens; details: Homo sapiens, D-263MG
Description: SANGER: Inhibition of human D-263MG cell growth in a cell viability assay.

NH-12 = assay type: functional, cell-based, Homo sapiens; details: Homo sapiens, NH-12;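 note: growth inhibition of NH-12 cells, read out with a cell viability assay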
Description: SANGER: Inhibition of human NH-12 cell growth in a cell viability assay.

BT-474 = assay type: functional, cell-based, Homo sapiens; details: Homo sapiens, BT-474
Description: SANGER: Inhibition of human BT-474 cell growth in a cell viability assay.

no-11 = assay type: functional, cell-based, Homo sapiens; details: Homo sapiens;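 note: growth inhibition of human NO-11 cells, read out with a cell viability assay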
Description: SANGER: Inhibition of human no-11 cell growth in a cell viability assay.

NCI-H1650 = assay type: functional, cell-based, Homo sapiens; details: Homo sapiens, NCI-H1650;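 note: growth inhibition of human NCI-H1650 cells measured by a cell viability assay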
Description: SANGER: Inhibition of human NCI-H1650 cell growth in a cell viability assay.

ES6 = assay type: functional, cell-based; details: Homo sapiens;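 note: growth inhibition of human ES6 cells, read out with a cell viability assay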
Description: SANGER: Inhibition of human ES6 cell growth in a cell viability assay.

SF-539 = assay type: functional, cell-based, Homo sapiens; details: Homo sapiens, SF-539;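 note: Read-out is a cell viability assay, with IC50 reflecting inhibition of cell growth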
Description: SANGER: Inhibition of human SF539 cell growth in a cell viability assay.

A4-Fuk = assay type: functional, cell-based, Homo sapiens; details: Homo sapiens, A4-Fuk;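 note: growth inhibition of A4-Fuk cells, read out by a cell viability assay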
Description: SANGER: Inhibition of human A4-Fuk cell growth in a cell viability assay.

U-266 = assay type: functional, cell-based, Homo sapiens; details: Homo sapiens, U-266
Description: SANGER: Inhibition of human U-266 cell growth in a cell viability assay.

CTV-1 = assay type: functional, cell-based, Homo sapiens; details: Homo sapiens, CTV-1;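 note: growth inhibition of the cell line, read out with a cell viability assay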
Description: SANGER: Inhibition of human CTV-1 cell growth in a cell viability assay.

KLE = assay type: functional, cell-based; details: Homo sapiens;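 note: growth inhibition of human KLE cells, read out with a cell viability assay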
Description: SANGER: Inhibition of human KLE cell growth in a cell viability assay.

EW-11 = assay type: functional, cell-based, Homo sapiens; details: Homo sapiens, EW-11;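 note: growth inhibition of human EW-11 cells, measured with a cell viability assay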
Description: SANGER: Inhibition of human EW-11 cell growth in a cell viability assay.

KNS-81-FD = assay type: functional, cell-based, Homo sapiens; details: Homo sapiens, KNS-81-FD;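 note: growth inhibition of KNS-81-FD cells, read out with a cell viability assay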
Description: SANGER: Inhibition of human KNS-81-FD cell growth in a cell viability assay.

SNU1 = assay type: functional, cell-based, Homo sapiens; details: Homo sapiens, SNU1;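 note: growth inhibition of human NCI-SNU-1 cells, measured with a cell viability assay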
Description: SANGER: Inhibition of human NCI-SNU-1 cell growth in a cell viability assay.

GI-ME-N = assay type: functional, cell-based, Homo sapiens; details: Homo sapiens, GI-ME-N;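 note: growth inhibition of human GI-ME-N cells, read out with a cell viability assay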
Description: SANGER: Inhibition of human GI-ME-N cell growth in a cell viability assay.

SK-N-FI = assay type: functional, cell-based, Homo sapiens; details: Homo sapiens, SK-N-FI;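 note: cell viability assay measuring growth inhibition of human SK-N-FI cells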
Description: SANGER: Inhibition of human SK-N-FI cell growth in a cell viability assay.

J-RT3-T3-5 = assay type: functional, cell-based, Homo sapiens; details: Homo sapiens, J-RT3-T3-5;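 note: cell viability assay measuring growth inhibition of human J-RT3-T3-5 cells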
Description: SANGER: Inhibition of human J-RT3-T3-5 cell growth in a cell viability assay.

NCI-H23 = assay type: functional, cell-based, Homo sapiens; details: Homo sapiens, NCI-H23;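 note: cell viability assay measuring growth inhibition of NCI-H23 cells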
Description: SANGER: Inhibition of human NCI-H23 cell growth in a cell viability assay.

KARPAS-45 = assay type: functional, cell-based, Homo sapiens; details: Homo sapiens, KARPAS-45;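 note: inhibition of cell line growth, read out through a viability assay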
Description: SANGER: Inhibition of human KARPAS-45 cell growth in a cell viability assay.

MFM-223 = assay type: functional, cell-based, Homo sapiens; details: Homo sapiens, MFM-223
Description: SANGER: Inhibition of human MFM-223 cell growth in a cell viability assay.

IST-MEL1 = assay type: functional, cell-based, Homo sapiens; details: Homo sapiens, IST-MEL1;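 note: growth inhibition of the cell line, read out with a cell viability assay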
Description: SANGER: Inhibition of human IST-MEL1 cell growth in a cell viability assay.

697 = assay type: functional, cell-based, Homo sapiens; details: Homo sapiens
Description: SANGER: Inhibition of human 697 cell growth in a cell viability assay.

SNU-5 = assay type: functional, cell-based, Homo sapiens; details: Homo sapiens, SNU-5;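 note: cell viability readout used to measure growth inhibition in human NCI-SNU-5 cells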
Description: SANGER: Inhibition of human NCI-SNU-5 cell growth in a cell viability assay.

MOLT-4 = assay type: functional, cell-based, Homo sapiens; details: Homo sapiens, MOLT-4;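 note: growth inhibition of MOLT-4 cells, determined with a cell viability readout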
Description: SANGER: Inhibition of human MOLT-4 cell growth in a cell viability assay.

NCI-H69 = assay type: functional, cell-based, Homo sapiens; details: Homo sapiens, NCI-H69;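 note: growth inhibition of the cell line, read out with a cell viability assay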
Description: SANGER: Inhibition of human NCI-H69 cell growth in a cell viability assay.

RPMI-8866 = assay type: functional, cell-based, Homo sapiens; details: Homo sapiens, RPMI-8866
Description: SANGER: Inhibition of human RPMI-8866 cell growth in a cell viability assay.

SW872 = assay type: functional, cell-based, Homo sapiens; details: Homo sapiens, SW872;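 note: growth inhibition of SW872 cells, read out by a viability assay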
Description: SANGER: Inhibition of human SW872 cell growth in a cell viability assay.

NCI-H209 = assay type: functional, cell-based, Homo sapiens; details: Homo sapiens, NCI-H209;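 note: growth inhibition of human NCI-H209 cells, measured by a cell viability assay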
Description: SANGER: Inhibition of human NCI-H209 cell growth in a cell viability assay.

UACC-257 = assay type: functional, cell-based, Homo sapiens; details: Homo sapiens, UACC-257
Description: SANGER: Inhibition of human UACC-257 cell growth in a cell viability assay.

IA-LM = assay type: functional, cell-based; details: Homo sapiens;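 note: cell viability assay measuring growth inhibition of human IA-LM cells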
Description: SANGER: Inhibition of human IA-LM cell growth in a cell viability assay.

SNU-C2B = assay type: functional, cell-based; details: Homo sapiens;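 note: cell viability readout used to measure compound-driven suppression of SNU-C2B cell proliferation, IC50 marking half-maximal growth inhibition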
Description: SANGER: Inhibition of human SNU-C2B cell growth in a cell viability assay.

Lu-65 = assay type: functional, cell-based, Homo sapiens; details: Homo sapiens, Lu-65;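 note: growth inhibition of Lu-65 cancer cells, read out by a cell viability assay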
Description: SANGER: Inhibition of human LU-65 cell growth in a cell viability assay.

NC1(c2ccc(-c3nc4ccn5c(=O)[nH]nc5c4cc3-c3ccccc3)cc2)CCC1 [MK-2206] was tested, and the pIC50 (KNS-42) was less than 5.40, the pIC50 (LS-411N) was less than 5.40 and the pIC50 (ONS-76) was less than 5.40. For the same molecule, the pIC50 (COLO-668) was less than 5.40, the pIC50 (LS-1034) was less than 5.40 and the pIC50 (NCI-H1770) was less than 5.40. It also gave a pIC50 (JVM-2) of less than 5.40, a pIC50 (MS-1) of less than 5.40 and a pIC50 (SK-N-DZ) of less than 5.40. It also gave a pIC50 (CTB-1) of 5.89, a pIC50 (IST-SL1) of less than 5.40 and a pIC50 (EM-2) of 6.01. For the same molecule, the pIC50 (MZ7-mel) was less than 5.40, the pIC50 (NB10) was less than 5.40 and the pIC50 (COLO-800) was less than 5.40. It also gave a pIC50 (DJM-1) of less than 5.40, a pIC50 (MPP-89) of less than 5.40 and a pIC50 (COR-L88) of less than 5.40. For the same molecule, the pIC50 (D-263MG) was less than 5.40, the pIC50 (NH-12) was less than 5.40 and the pIC50 (BT-474) was less than 5.40. For the same molecule, the pIC50 (no-11) was less than 5.40, the pIC50 (NCI-H1650) was less than 5.40 and the pIC50 (ES6) was less than 5.40. The pIC50 (SF-539) was less than 5.40, the pIC50 (A4-Fuk) was 6.33 and the pIC50 (U-266) was less than 5.40. The pIC50 (CTV-1) was less than 5.40, the pIC50 (KLE) was less than 5.40 and the pIC50 (EW-11) was less than 5.40. For the same molecule, the pIC50 (KNS-81-FD) was less than 5.40, the pIC50 (SNU1) was less than 5.40 and the pIC50 (GI-ME-N) was less than 5.40. The pIC50 (SK-N-FI) was less than 5.40, the pIC50 (J-RT3-T3-5) was 6.13 and the pIC50 (NCI-H23) was less than 5.40. For the same molecule, the pIC50 (KARPAS-45) was 6.43, the pIC50 (MFM-223) was 5.87 and the pIC50 (IST-MEL1) was less than 5.40. The pIC50 697 was 5.86, the pIC50 (SNU-5) was less than 5.40 and the pIC50 (MOLT-4) was 6.09. For the same molecule, the pIC50 (NCI-H69) was less than 5.40, the pIC50 (RPMI-8866) was less than 5.40 and the pIC50 (SW872) was less than 5.40. It also gave a pIC50 (NCI-H209) of less than 5.40, a pIC50 (UACC-257) of less than 5.40 and a pIC50 (IA-LM) of less than 5.40. For the same molecule, the pIC50 (SNU-C2B) was less than 5.40 and the pIC50 (Lu-65) was less than 5.40.

OC[C@H](Cc1ccccc1)Nc1nc(Oc2ccc3c(c2)CCC3)nc2c1ncn2Cc1ccc(-c2ccccc2)cc1 was tested, and the pIC50 (KNS-42) was less than 4.99, the pIC50 (LS-411N) was 5.07 and the pIC50 (ONS-76) was 5.07. It also gave a pIC50 (COLO-668) of less than 4.99, a pIC50 (LS-1034) of less than 4.99 and a pIC50 (NCI-H1770) of 5.05. For the same molecule, the pIC50 (JVM-2) was less than 4.99, the pIC50 (MS-1) was less than 4.99 and the pIC50 (SK-N-DZ) was 5.65. It also gave a pIC50 (CTB-1) of less than 4.99, a pIC50 (IST-SL1) of less than 4.99 and a pIC50 (EM-2) of less than 4.99. For the same molecule, the pIC50 (MZ7-mel) was 5.05, the pIC50 (NB10) was less than 4.99 and the pIC50 (COLO-800) was less than 4.99. For the same molecule, the pIC50 (DJM-1) was less than 4.99, the pIC50 (MPP-89) was less than 4.99 and the pIC50 (COR-L88) was less than 4.99. The pIC50 (D-263MG) was less than 4.99, the pIC50 (NH-12) was less than 4.99 and the pIC50 (BT-474) was less than 4.99. The pIC50 (no-11) was less than 4.99, the pIC50 (NCI-H1650) was less than 4.99 and the pIC50 (ES6) was less than 4.99. For the same molecule, the pIC50 (SF-539) was less than 4.99, the pIC50 (A4-Fuk) was less than 4.99 and the pIC50 (U-266) was less than 4.99. The pIC50 (CTV-1) was less than 4.99, the pIC50 (KLE) was less than 4.99 and the pIC50 (EW-11) was less than 4.99. For the same molecule, the pIC50 (KNS-81-FD) was less than 4.99, the pIC50 (SNU1) was less than 4.99 and the pIC50 (GI-ME-N) was less than 4.99. The pIC50 (SK-N-FI) was less than 4.99, the pIC50 (J-RT3-T3-5) was less than 4.99 and the pIC50 (NCI-H23) was less than 4.99. It also gave a pIC50 (KARPAS-45) of less than 4.99, a pIC50 (MFM-223) of less than 4.99 and a pIC50 (IST-MEL1) of less than 4.99. For the same molecule, the pIC50 697 was 5.48, the pIC50 (SNU-5) was less than 4.99 and the pIC50 (MOLT-4) was less than 4.99. For the same molecule, the pIC50 (NCI-H69) was less than 4.99, the pIC50 (RPMI-8866) was less than 4.99 and the pIC50 (SW872) was 4.99. It also gave a pIC50 (NCI-H209) of less than 4.99, a pIC50 (UACC-257) of less than 4.99 and a pIC50 (IA-LM) of 5.23. The pIC50 (SNU-C2B) was less than 4.99 and the pIC50 (Lu-65) was less than 4.99.
